Numbered stars: 1 amine (or outer) side, 2 acyl side, 3 side chain; on linkers, the order of the positions; unused ones are H or OH. Square brackets hold non-standard residues; d marks the D form. Peptide text beside a SMILES is read from it. * marks the point of attachment. X10 = NC(=O)C[C@@H](C(=O)[*:2])N(C[C@@H](N)Cc1ccc(O)cc1)[*:1]; Butyryl(4-indol-3-yl) = O=C(CCCc1c[nH]c2ccccc12)*; Phe(4-F) = N[C@@H](Cc1ccc(F)cc1)C(=O)O; 2Nal = N[C@@H](Cc1ccc2ccccc2c1)C(=O)O; Arg(Me) = CNC(=N)NCCC[C@H](N)C(=O)O; 4Pal = N[C@@H](Cc1ccncc1)C(=O)O; d3Pal = N[C@H](Cc1cccnc1)C(=O)O; Cha = N[C@@H](CC1CCCCC1)C(=O)O; azaGly = NNC(=O)O
The molecules below were run against hOT7T175 (Homo sapiens, UniProt Q969F8, L364H) (assay: Intracellular Ca ion level-increasing activity using FLIPR in hOT7T175/CHO). Details: relative, Metastin (1-54) = 1.
Sequence of hOT7T175 (Q969F8 whole entry L364H): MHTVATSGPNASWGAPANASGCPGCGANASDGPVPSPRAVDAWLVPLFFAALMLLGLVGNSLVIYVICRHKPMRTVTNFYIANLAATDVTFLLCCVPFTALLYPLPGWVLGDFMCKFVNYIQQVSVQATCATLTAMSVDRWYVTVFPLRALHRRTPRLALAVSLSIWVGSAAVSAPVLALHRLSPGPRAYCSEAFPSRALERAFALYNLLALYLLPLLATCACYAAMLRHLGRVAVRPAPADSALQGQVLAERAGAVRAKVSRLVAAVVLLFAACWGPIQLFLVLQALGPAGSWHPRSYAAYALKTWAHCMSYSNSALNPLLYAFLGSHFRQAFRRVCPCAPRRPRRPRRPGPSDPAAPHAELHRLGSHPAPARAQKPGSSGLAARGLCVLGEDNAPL
Assay type: cell-based
Set-up: expressed in transfected cells; host or cells: CHO/dhfr- cells, obtained from ATCC
In the case of `CC(C)C[C@H](NC(=O)CNC(=O)[C@H](Cc1ccccc1)NC(=O)[C@H](CO)NC(=O)[C@H](CC(N)=O)NC(=O)[C@H](Cc1c[nH]c2ccccc12)NC(=O)[C@H](CC(N)=O)NC(=O)[C@@H](N)Cc1ccc(O)cc1)C(=O)N[C@@H](CCCNC(=N)N)C(=O)N[C@@H](Cc1ccncc1)C(N)=O` [Compound No. 17] (H-YNWNSFGLR[4Pal]-NH2), the “Specific Activity (intracellular Ca ion level-increasing activity)” value was 5.
In the case of `CNC(=N)NCCC[C@H](NC(=O)[C@H](CC(C)C)NC(=O)CNC(=O)[C@H](Cc1ccccc1)NC(=O)[C@H](CO)NC(=O)[C@H](CC(N)=O)NC(=O)[C@@H](Cc1c[nH]c2ccccc12)NC(=O)[C@@H](CC(N)=O)NC(=O)[C@H](N)Cc1ccc(O)cc1)C(=O)N[C@@H](Cc1ccccc1)C(N)=O` [Compound No. 231, D-Tyr-D-Asn-D-Trp-Asn-Ser-Phe-Gly-Leu-Arg(Me)-Phe-NH2], the “Specific Activity (intracellular Ca ion level-increasing activity)” value was 1.
In the case of `CNC(=N)NCCC[C@H](NC(=O)[C@H](CC(C)C)NC(=O)NNC(=O)[C@H](Cc1ccccc1)NC(=O)[C@H](CO)NC(=O)[C@H](CC(N)=O)NC(=O)[C@H](Cc1c[nH]c2ccccc12)NC(=O)[C@H](CC(N)=O)NC(=O)[C@H](N)Cc1ccc(O)cc1)C(=O)N[C@@H](Cc1ccc(F)cc1)C(N)=O` [Compound No. 318, D-Tyr-Asn-Trp-Asn-Ser-Phe-AzaGly-Leu-Arg(Me)-Phe(4F)-NH2], the “Specific Activity (intracellular Ca ion level-increasing activity)” value was 5.
With `CNC(=N)NCCC[C@H](NC(=O)[C@H](CC(C)C)NC(=O)NNC(=O)[C@H](Cc1ccccc1)NC(=O)[C@H](CO)NC(=O)[C@H](CC(N)=O)NC(=O)[C@H](CC1CCCCC1)NC(=O)[C@H](CC(N)=O)NC(=O)[C@H](N)Cc1ccc(O)cc1)C(=O)N[C@@H](Cc1ccccc1)C(N)=O` [Compound No. 190, D-Tyr-Asn-Cha-Asn-Ser-Phe-AzaGly-Leu-Arg(Me)-Phe-NH2] (H-[dY]N[Cha]NSF[azaGly]L[Arg(Me)]F-NH2) the “Specific Activity (intracellular Ca ion level-increasing activity)” value was 10.
With `CC(C)C[C@H](NC(=O)CNC(=O)[C@H](Cc1ccccc1)NC(=O)[C@H](CO)NC(=O)[C@H](CC(N)=O)NC(=O)[C@H](Cc1c[nH]c2ccccc12)NC(=O)[C@H](CC(N)=O)NC(=O)[C@@H](N)Cc1ccc(O)cc1)C(=O)N[C@@H](CCCNC(=N)N)C(=O)N[C@@H](Cc1ccc(F)c(F)c1)C(N)=O` [Compound No. 198] the “Specific Activity (intracellular Ca ion level-increasing activity)” value was 10.
In the case of `CC(C)C[C@H](NC(=O)CNC(=O)[C@H](Cc1ccccc1)NC(=O)[C@H](CO)NC(=O)[C@H](CC(N)=O)NC(=O)[C@H](Cc1c[nH]c2ccccc12)NC(=O)[C@H](CC(N)=O)NC[C@@H](N)Cc1ccc(O)cc1)C(=O)N[C@@H](CCCNC(=N)N)C(=O)N[C@@H](Cc1ccccc1)C(N)=O` [Compound No. 294] (H-[X10]WNSFGLRF-NH2), the “Specific Activity (intracellular Ca ion level-increasing activity)” value was 10.
With `CNC(=N)NCCC[C@H](NC(=O)[C@H](CC(C)C)NC(=O)[C@H](C)NC(=O)[C@H](Cc1ccccc1)NC(=O)[C@H](CO)NC(=O)[C@H](CC(N)=O)NC(=O)[C@H](Cc1c[nH]c2ccccc12)NC(=O)[C@H](CC(N)=O)NC(=O)[C@H](N)Cc1ccc(O)cc1)C(=O)N[C@@H](Cc1ccccc1)C(N)=O` [Compound No. 204] (H-[dY]NWNSFAL[Arg(Me)]F-NH2) the “Specific Activity (intracellular Ca ion level-increasing activity)” value was 5.
In the case of `CC(C)C[C@H](NC(=O)CNC(=O)[C@H](Cc1ccccc1)NC(=O)[C@H](CO)NC(=O)[C@H](CC(N)=O)NC(=O)[C@H](Cc1c[nH]c2ccccc12)NC(=O)[C@H](CC(N)=O)NC(=O)[C@@H](N)Cc1ccc(O)cc1)C(=O)N[C@@H](CCNC(=N)N)C(=O)N[C@@H](Cc1ccccc1)C(N)=O` [Compound No. 310], the “Specific Activity (intracellular Ca ion level-increasing activity)” value was 3.
For `CCCNC(=N)NCCC[C@H](NC(=O)[C@H](CC(C)C)NC(=O)CNC(=O)[C@H](Cc1ccccc1)NC(=O)[C@H](CO)NC(=O)[C@H](CC(N)=O)NC(=O)[C@H](Cc1c[nH]c2ccccc12)NC(=O)[C@H](CC(N)=O)NC(=O)[C@H](N)Cc1ccc(O)cc1)C(=O)N[C@@H](Cc1ccccc1)C(N)=O` [Compound No. 193], the “Specific Activity (intracellular Ca ion level-increasing activity)” value was 001.
`CNC(=N)NCCC[C@H](NC(=O)[C@H](CC(C)C)NC(=O)NNC(=O)[C@H](Cc1ccccc1)NC(=O)[C@H](CO)NC(=O)[C@H](CC(N)=O)NC(=O)[C@@H](Cc1c[nH]c2ccccc12)NC(=O)[C@H](CC(N)=O)NC[C@@H](N)Cc1ccc(O)cc1)C(=O)N[C@@H](Cc1ccccc1)C(N)=O` [Compound No. 300, TyrΨ(CH2NH)Asn-D-Trp-Asn-Ser-Phe-AzaGly-Leu-Arg(Me)-Phe-NH2] (H-[X10][dW]NSF[azaGly]L[Arg(Me)]F-NH2) was tested, and the “Specific Activity (intracellular Ca ion level-increasing activity)” value was 5.
In the case of `CNC(=N)NCCC[C@H](NC(=O)[C@H](CC(C)C)NC(=O)NNC(=O)[C@H](Cc1ccccc1)NC(=O)[C@H](CO)NC(=O)[C@H](CC(N)=O)NC(=O)CCCc1c[nH]c2ccccc12)C(=O)N[C@@H](Cc1ccccc1)C(N)=O` [Compound No. 267, 4-(3-Indolyl)butyryl-Asn-Ser-Phe-AzaGly-Leu-Arg(Me)-Phe-NH2] ({Butyryl(4-indol-3-yl)}-NSF[azaGly]L[Arg(Me)]F-NH2), the “Specific Activity (intracellular Ca ion level-increasing activity)” value was 2.
For `CNC(=N)NCCC[C@H](NC(=O)[C@H](CC(C)C)NC(=O)NNC(=O)[C@H](Cc1ccccc1)NC(=O)[C@H](CO)NC(=O)[C@H](CC(N)=O)NC(=O)[C@H](Cc1ccccc1)NC(=O)[C@H](N)Cc1cccnc1)C(=O)N[C@@H](Cc1ccccc1)C(N)=O` [Compound No. 256, D-Pya(3)-Phe-Asn-Ser-Phe-AzaGly-Leu-Arg(Me)-Phe-NH2] (H-[d3Pal]FNSF[azaGly]L[Arg(Me)]F-NH2), the “Specific Activity (intracellular Ca ion level-increasing activity)” value was 1.
`CNC(=N)NCCC[C@H](NC(=O)[C@H](CC(C)C)NC(=O)NNC(=O)[C@H](Cc1ccccc1)NC(=O)[C@H](CO)NC(=O)[C@H](CC(N)=O)NC(=O)[C@@H](Cc1c[nH]c2ccccc12)NC(=O)[C@H](N)Cc1ccc(O)cc1)C(=O)N[C@@H](Cc1ccccc1)C(N)=O` [Compound No. 242, D-Tyr-D-Trp-Asn-Ser-Phe-AzaGly-Leu-Arg(Me)-Phe-NH2] (H-[dY][dW]NSF[azaGly]L[Arg(Me)]F-NH2) was tested, and the “Specific Activity (intracellular Ca ion level-increasing activity)” value was 2.
For `CNC(=N)NCCC[C@H](NC(=O)[C@H](CC(C)C)NC(=O)NNC(=O)[C@H](Cc1ccccc1)NC(=O)[C@H](CO)NC(=O)[C@H](CC(N)=O)NC(=O)[C@H](Cc1ccncc1)NC(=O)[C@@H](CC(N)=O)NC(=O)[C@H](N)Cc1ccc(O)cc1)C(=O)N[C@@H](Cc1ccc(F)cc1)C(N)=O` [Compound No. 317, D-Tyr-D-Asn-Pya(4)-Asn-Ser-Phe-AzaGly-Leu-Arg(Me)-Phe(4F)-NH2] (H-[dY][dN][4Pal]NSF[azaGly]L[Arg(Me)][Phe(4-F)]-NH2), the “Specific Activity (intracellular Ca ion level-increasing activity)” value was 1.
`CNC(=N)NCCC[C@H](NC(=O)[C@H](CC(C)C)NC(=O)NNC(=O)[C@H](Cc1ccccc1)NC(=O)[C@H](CO)NC(=O)[C@H](CC(N)=O)NC(=O)[C@H](Cc1ccc2ccccc2c1)NC(=O)[C@H](N)Cc1ccc(O)cc1)C(=O)N[C@@H](Cc1ccccc1)C(N)=O` [Compound No. 255, D-Tyr-Nal(2)-Asn-Ser-Phe-AzaGly-Leu-Arg(Me)-Phe-NH2] (H-[dY][2Nal]NSF[azaGly]L[Arg(Me)]F-NH2) was tested, and the “Specific Activity (intracellular Ca ion level-increasing activity)” value was 1.

Source: US8361968B2 (Takeda Pharmaceutical Company Limited, priority 2002, dated 2013)
